Publication PMC9274004, “Deciphering the Molecular Interaction Between the Adhesion G Protein-Coupled Receptor ADGRV1 and its PDZ-Containing Regulator PDZD7” (Frontiers in Molecular Biosciences, 2022)
Where no end group is shown, it is not given here.

Columns and labels:
Type in all cases: binding, murine
[1] = target: T1, PDZD7 PDZ1ext G103R (Mus musculus, UniProt E9Q9W7, G103R); test: NMR titration of PDZ1ext G103R; details: Tris HCl pH 7.5 (50 mM), 25°C
T1 construct: PDZ1 (81-167), PDZ1ext (81-192); GST (followed by TEV site) (N, cleaved yes); made in house; host or cells: E. coli BL21 DE3
Procedure: All experiments were recorded at 25°C on a Bruker 800 MHz spectrometer equipped with a triple resonance ^1H{^13C/^15N} cryoprobe. The ^1H, ^15 N and ^13C backbone resonances assignment of PDZ1ext was carried out using 3D HNCA, HNCACB, HNCO, HNCOCA experiments (Tris HCl buffer adjusted to pH 6). The 2D ^1H-^15N HSQC spectra used to compare PDZ1, PDZ1ext, PDZ2 and PDZ2ext were recorded in Tris HCl pH 7.5 (50 mM). The 2D ^1H-^15N HSQC spectra used to compare PDZ1ext, PDZ2ext and P1P2 were recorded in Phosphate Buffer pH 6.5 (50 mM). Titration experiments of PDZ1 (WT), PDZ1ext (WT) and PDZ1ext (G103R) against ADGRV1pbm peptide were performed in Tris HCl pH 7.5 (50 mM). Averaged Chemical Shifts Perturbations (CSP) were calculated as: Δδavg = ((Δδ(^1H))^2+(Δδ(^15N)*0.159)^2)^½. […]
We characterized the potential effect of the two substitutions on the interaction with ADGRV1pbm using a panel of techniques. First, we confirmed by NMR that PDZ1ext G103R is well-folded, with significant perturbations (CSPs >0.04 ppm) only detected for residues spatially close to the G103R mutation (Supplementary Figure S10). […] We calculated Rg = 28 Å and Dmax = 118.2 Å for the mutant tandem without ligand, and Rg = 27.7 Å and Dmax = 123.6 Å in presence of ADGRV1pbm peptide. […]

[2] = target: T2, PDZD7 P1P2 (81-313) (Mus musculus, UniProt E9Q9W7); test: Fluorescence titration of PDZ tandem P1P2; details: fluorescence titration (Trp, ex 295 nm, em 346-349 nm); P1P2 2 µM in Phosphate Buffer pH 6.6 (50 mM); error from quality of fit
T2 construct: PDZ2ext (206-313), P1P2 (81-313); GST (followed by TEV site) (N, cleaved yes); made in house; host or cells: E. coli BL21 DE3
Procedure: Fluorescence titrations were performed on a Jasco V-730 spectrometer using quartz cell 109.004F-QS (Hellma Analytics) with an optical path of 10 mm and with thick side to reduce the inner filter effect. PDZ1ext and P1P2 were prepared in Phosphate Buffer pH 6.6 (50 mM) at 6 and 2 µM respectively, while PDZ2ext was prepared in Tris HCl pH 7.5 (50 mM) at 5 µM. Variations in the quantum yield of fluorescence of tryptophans from the sample were monitored upon progressive addition of buffered ADGRV1pbm peptide. After peptide addition, the sample is homogenized by in-spectrometer magnet agitation for 30 s. The sample is left to rest for an additional 60 s before measurement. Excitation is set at 295 nm and fluorescence was measured at the maximum emission wavelength (346-349 nm) of the unbound form with a 5 nm bandwidth for both. Titration curves were fitted using the following formula: y = Fp∗p0+(Fx-Fp)∗0.5∗(R∗I0+(1-R)∗x + K-((R∗I0+(1-R)∗x + K)^2-4∗R∗(I0-x)∗x)^1/2), where p0 is the initial protein concentration, I0 the peptide stock concentration, R the p0/I0 ratio, x the volume of added peptide in µl, Fp the fluorescence of PDZ constructs, Fx the fluorescence of the complex, and K the Kd. […]
We monitored the interaction between PDZD7 constructs and a peptide (ADGRV1pbm) corresponding to the last 13 residues of ADGRV1, encompassing its PBM (sequence VELRRIPIADTHL-COOH; PBM underlined). […]

[3] = target: T3, PDZD7 P1P2 G103R (Mus musculus, UniProt E9Q9W7, G103R); test: Fluorescence titration of P1P2 G103R
T3 construct: PDZ2ext (206-313), P1P2 (81-313); GST (followed by TEV site) (N, cleaved yes); made in house; host or cells: E. coli BL21 DE3
Procedure: Fluorescence titrations were performed on a Jasco V-730 spectrometer using quartz cell 109.004F-QS (Hellma Analytics) with an optical path of 10 mm and with thick side to reduce the inner filter effect. PDZ1ext and P1P2 were prepared in Phosphate Buffer pH 6.6 (50 mM) at 6 and 2 µM respectively, while PDZ2ext was prepared in Tris HCl pH 7.5 (50 mM) at 5 µM. Variations in the quantum yield of fluorescence of tryptophans from the sample were monitored upon progressive addition of buffered ADGRV1pbm peptide. After peptide addition, the sample is homogenized by in-spectrometer magnet agitation for 30 s. The sample is left to rest for an additional 60 s before measurement. Excitation is set at 295 nm and fluorescence was measured at the maximum emission wavelength (346-349 nm) of the unbound form with a 5 nm bandwidth for both. Titration curves were fitted using the following formula: y = Fp∗p0+(Fx-Fp)∗0.5∗(R∗I0+(1-R)∗x + K-((R∗I0+(1-R)∗x + K)^2-4∗R∗(I0-x)∗x)^1/2), where p0 is the initial protein concentration, I0 the peptide stock concentration, R the p0/I0 ratio, x the volume of added peptide in µl, Fp the fluorescence of PDZ constructs, Fx the fluorescence of the complex, and K the Kd. The values of p0, I0 and R are kept constant.
We characterized the potential effect of the two substitutions on the interaction with ADGRV1pbm using a panel of techniques. […]

T2 sequence (E9Q9W7 81-313): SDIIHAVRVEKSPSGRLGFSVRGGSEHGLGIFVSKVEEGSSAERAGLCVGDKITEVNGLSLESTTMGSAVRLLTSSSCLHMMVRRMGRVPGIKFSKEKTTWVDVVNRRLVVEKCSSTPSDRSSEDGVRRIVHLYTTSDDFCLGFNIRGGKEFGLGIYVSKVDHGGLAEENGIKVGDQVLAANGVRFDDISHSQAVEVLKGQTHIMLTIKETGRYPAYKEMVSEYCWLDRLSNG
T3 sequence (E9Q9W7 81-313 G103R): as the sequence (E9Q9W7 81-313) above, with G23R counted along it
T1 sequence (E9Q9W7 81-192 G103R): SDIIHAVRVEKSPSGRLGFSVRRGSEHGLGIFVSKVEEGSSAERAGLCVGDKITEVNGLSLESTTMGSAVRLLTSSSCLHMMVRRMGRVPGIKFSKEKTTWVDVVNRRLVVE

Kd [1]: 1190 µM
Kd [2]: 1.6 ± 0.3 µM
Kd [3]: 1.9 ± 0.4 µM
Sequence: VELRRIPIADTHL [ADGRV1pbm]
